This note sets out measurements from patent US20260102501A1, “ANTI-CANCER NUCLEAR HORMONE RECEPTOR-TARGETING COMPOUNDS” (Nuvation Bio Inc., priority 2022, published 2026).

The target of experiment [1] is T1, GR (cytosol from IM-9 cells) (Homo sapiens, UniProt P04150).
T1 sequence (P04150 1-777): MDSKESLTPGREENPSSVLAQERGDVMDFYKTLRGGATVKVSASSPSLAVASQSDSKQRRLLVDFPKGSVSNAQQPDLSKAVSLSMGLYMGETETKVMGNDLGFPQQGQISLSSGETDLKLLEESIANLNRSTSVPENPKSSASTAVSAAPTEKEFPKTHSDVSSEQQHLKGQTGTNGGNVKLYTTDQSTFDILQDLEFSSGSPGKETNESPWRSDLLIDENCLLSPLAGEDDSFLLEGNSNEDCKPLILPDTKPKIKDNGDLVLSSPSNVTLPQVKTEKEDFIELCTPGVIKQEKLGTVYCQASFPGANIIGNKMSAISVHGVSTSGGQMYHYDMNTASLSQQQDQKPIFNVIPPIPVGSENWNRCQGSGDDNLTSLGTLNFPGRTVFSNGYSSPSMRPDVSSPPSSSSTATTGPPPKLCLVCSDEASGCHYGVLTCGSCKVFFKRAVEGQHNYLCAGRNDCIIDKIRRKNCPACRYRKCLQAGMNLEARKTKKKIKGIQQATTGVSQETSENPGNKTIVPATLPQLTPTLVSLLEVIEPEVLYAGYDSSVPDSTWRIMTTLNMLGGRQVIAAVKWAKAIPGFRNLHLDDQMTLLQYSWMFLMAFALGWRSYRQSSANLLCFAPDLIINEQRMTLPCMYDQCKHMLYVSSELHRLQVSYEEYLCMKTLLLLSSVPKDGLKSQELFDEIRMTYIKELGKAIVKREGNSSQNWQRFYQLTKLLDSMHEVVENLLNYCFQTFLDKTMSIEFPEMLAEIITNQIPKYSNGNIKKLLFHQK
The experiment is described as follows: GR binding assay (3H-Dexamethasone displacement).

The target of experiment [2] is T2, Progesterone PR-B receptors from human breast carcinoma T47D cells (Homo sapiens, UniProt P06401).
T2 sequence (P06401 1-933): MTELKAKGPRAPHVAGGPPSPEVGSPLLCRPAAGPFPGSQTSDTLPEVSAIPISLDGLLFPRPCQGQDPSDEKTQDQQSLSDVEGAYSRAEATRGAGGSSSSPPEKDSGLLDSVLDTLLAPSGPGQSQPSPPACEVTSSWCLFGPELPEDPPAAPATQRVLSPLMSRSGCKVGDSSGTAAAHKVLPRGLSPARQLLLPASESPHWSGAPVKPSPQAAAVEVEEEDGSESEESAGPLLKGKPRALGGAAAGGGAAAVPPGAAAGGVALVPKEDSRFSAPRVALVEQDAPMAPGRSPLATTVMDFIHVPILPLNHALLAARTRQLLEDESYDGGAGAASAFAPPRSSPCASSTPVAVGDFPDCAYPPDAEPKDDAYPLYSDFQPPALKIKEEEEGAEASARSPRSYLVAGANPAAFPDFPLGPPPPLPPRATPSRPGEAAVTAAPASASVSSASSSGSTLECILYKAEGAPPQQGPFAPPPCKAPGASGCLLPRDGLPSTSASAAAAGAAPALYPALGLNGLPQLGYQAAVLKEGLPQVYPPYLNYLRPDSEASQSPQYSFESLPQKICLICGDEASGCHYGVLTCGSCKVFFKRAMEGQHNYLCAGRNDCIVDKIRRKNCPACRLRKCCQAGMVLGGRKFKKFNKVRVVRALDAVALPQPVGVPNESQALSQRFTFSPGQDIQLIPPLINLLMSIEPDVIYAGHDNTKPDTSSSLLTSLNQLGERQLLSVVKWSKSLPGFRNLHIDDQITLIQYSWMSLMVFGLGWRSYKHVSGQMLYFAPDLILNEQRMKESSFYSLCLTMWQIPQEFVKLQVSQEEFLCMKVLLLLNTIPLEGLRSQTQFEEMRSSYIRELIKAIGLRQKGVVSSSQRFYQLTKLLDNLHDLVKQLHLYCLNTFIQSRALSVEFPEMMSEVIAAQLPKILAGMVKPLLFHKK
The experiment is described as follows: PR binding assay ([3H] Progesterone displacement).

For experiment [3], the target named is T3, full-length androgen receptor (HEK293 cells stably expressing) (Homo sapiens, UniProt P10275).
T3 sequence (P10275 1-920): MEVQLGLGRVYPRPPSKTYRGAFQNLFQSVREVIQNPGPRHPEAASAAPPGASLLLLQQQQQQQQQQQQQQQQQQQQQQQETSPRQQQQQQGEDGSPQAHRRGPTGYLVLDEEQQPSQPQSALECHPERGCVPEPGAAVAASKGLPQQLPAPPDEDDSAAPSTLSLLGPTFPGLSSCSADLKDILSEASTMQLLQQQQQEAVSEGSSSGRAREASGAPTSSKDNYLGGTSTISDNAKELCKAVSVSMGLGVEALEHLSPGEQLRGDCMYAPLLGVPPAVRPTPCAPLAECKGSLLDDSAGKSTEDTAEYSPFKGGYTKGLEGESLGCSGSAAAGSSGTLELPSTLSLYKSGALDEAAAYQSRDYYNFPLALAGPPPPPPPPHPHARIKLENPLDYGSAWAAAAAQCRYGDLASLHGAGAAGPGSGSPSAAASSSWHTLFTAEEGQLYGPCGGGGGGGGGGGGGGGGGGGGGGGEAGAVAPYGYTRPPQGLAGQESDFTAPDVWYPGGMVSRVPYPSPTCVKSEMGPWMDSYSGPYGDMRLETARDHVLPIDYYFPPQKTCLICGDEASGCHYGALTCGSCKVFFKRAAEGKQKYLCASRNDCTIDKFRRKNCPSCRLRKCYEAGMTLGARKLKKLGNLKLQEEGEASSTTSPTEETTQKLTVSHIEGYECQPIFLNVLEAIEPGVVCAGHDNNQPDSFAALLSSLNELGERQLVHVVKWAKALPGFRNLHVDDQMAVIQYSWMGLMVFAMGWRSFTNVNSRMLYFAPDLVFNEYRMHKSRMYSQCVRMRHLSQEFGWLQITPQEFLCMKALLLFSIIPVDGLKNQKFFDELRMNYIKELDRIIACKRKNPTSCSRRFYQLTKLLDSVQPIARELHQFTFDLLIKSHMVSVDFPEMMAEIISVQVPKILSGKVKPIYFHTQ
The experiment is described as follows: AR antagonism assay (luciferase reporter). (In general: In a reporter assay the amount or activity of a reporter protein is the signal.)

Experiment [4] relates to IEC6 cells. As to the kind of experiment: Cell viability assay (CellTiterGlo). Conditions: Rattus norvegicus, IEC-6, 144 h, read-out: IEC-6 (IC50, nM). For orientation: In ATP-based viability assays light output follows the ATP content of the culture.

Counter-ions that a name gives are not always drawn. Numbered stars: 1 amine (or outer) side, 2 acyl side, 3 side chain; on linkers, the order of the positions; unused ones are H or OH. Square brackets hold non-standard residues; d marks the D form. Peptide text beside a SMILES is read from it. * marks the point of attachment. X1 = CC(=O)O[C@]1(C(C)=O)CC[C@H]2[C@@H]3CCC4=CC(=O)CCC4=C3[C@@H](c3ccc(*)cc3)C[C@@]21C; Exatecan = CC[C@@]1(O)C(=O)OCc2c1cc1n(c2=O)Cc2c-1nc1cc(F)c(C)c3c1c2[C@@H](N*)CC3; NHCH2OCH2CO = O=C(COCN[*:1])[*:2]; Sar = CNCC(=O)O

On to `CC[C@@]1(O)C(=O)OCc2c1cc1n(c2=O)Cc2cc3c(CN4CCN(C(=O)C5CCN(c6ccc(C(=O)N[C@H]7CC[C@H](Oc8ccc(C#N)c(Cl)c8C)CC7)nn6)CC5)CC4)c(OC(=O)N4C[C@H](C)N(C)C[C@H]4C)ccc3nc2-1` [Compound 30, (S)-10-((4-(1-(6-(((1r,4r)-4-(3-Chloro-4-cyano-2-methylphenoxy)cyclohexyl)carbamoyl)-pyridazin-3-yl)piperidine-4-carbonyl)piperazin-1-yl)methyl)-4-ethyl-4-hydroxy-3,14-dioxo-3,4,12,14-tetrahydro-1H-pyrano[3′,4′:6,7]indolizino[1,2-b]quinolin-9-yl (2R,5S)-2,4,5-trimethylpiperazine-1-carboxylate Formate], for which the 50% inhibitory concentration (IC50) (in general, the concentration that inhibits the measured activity by half) was above 1 µM in experiment [1], below 0.01 µM in experiment [2], above 1 µM in experiment [3] and above 1000 nM in experiment [4].
Turning to `CC[C@@]1(O)C(=O)OCc2c1cc1n(c2=O)Cc2cc3c(CN(C)C)c(OC(=O)N4CCN(CC5CCN(c6ccc(C(=O)N[C@H]7CC[C@H](Oc8ccc(C#N)c(Cl)c8C)CC7)nn6)CC5)CC4)ccc3nc2-1` [Compound 31, (S)-10-((Dimethylamino)methyl)-4-ethyl-4-hydroxy-3,14-dioxo-3,4,12,14-tetrahydro-1H-pyrano[3′,4′:6,7]indolizino[1,2-b]quinolin-9-yl 4-((1-(6-(((1r,4r)-4-(3-chloro-4-cyano-2-methylphenoxy)cyclohexyl)carbamoyl)pyridazin-3-yl)piperidin-4-yl)methyl)piperazine-1-carboxylate Formate], the IC50 was above 1 µM in experiment [1], below 0.01 µM in experiment [2], above 1 µM in experiment [3] and 101 to 1000 nM in experiment [4].
For the molecule `CC[C@@]1(O)C(=O)OCc2c1cc1n(c2=O)Cc2c-1nc1cc(F)c(C)c3c1c2[C@@H](NC(=O)COCNC(=O)CNC(=O)[C@H](Cc1ccccc1)NC(=O)CNC(=O)CN(C)c1ccc([C@H]2C[C@@]4(C)[C@@H](CC[C@]4(OC(C)=O)C(C)=O)[C@@H]4CCC5=CC(=O)CCC5=C42)cc1)CC3` [Compound 34, (8S,11R,13S,14S,17R)-17-Acetyl-11-(4-(((S)-10-benzyl-1-(((1S,9S)-9-ethyl-5-fluoro-9-hydroxy-4-methyl-10,13-dioxo-2,3,9,10,13,15-hexahydro-1H,12H-benzo[de]pyrano[3′,4′:6,7]indolizino[1,2-b]quinolin-1-yl)amino)-1,6,9, 12,15-pentaoxo-3-oxa-5,8,11,14-tetraazahexadecan-16-yl)(methyl)amino)phenyl)-13-methyl-3-oxo-2,3,6,7,8,11,12,13,14,15,16,17-dodecahydro-1H-cyclopenta[a]phenanthren-17-yl Acetate] (X1-[Sar]GFG[NHCH2OCH2CO]-Exatecan), the IC50 in experiment [1] is below 0.01 µM; in experiment [2], below 0.01 µM; in experiment [3], above 1 µM; in experiment [4], 101 to 1000 nM.
Regarding `CC[C@@]1(O)C(=O)OCc2c1cc1n(c2=O)Cc2cc3c(CN4CCN(CCCCCCN(C)c5ccc([C@H]6C[C@@]7(C)[C@@H](CC[C@]7(OC(C)=O)C(C)=O)[C@@H]7CCC8=CC(=O)CCC8=C76)cc5)CC4)c(O)ccc3nc2-1` [Compound 36, (8S,11R,13S,14S,17R)-17-acetyl-11-(4-((6-(4-(((S)-4-ethyl-4,9-dihydroxy-3,14-dioxo-3,4,12,14-tetrahydro-1H-pyrano[3′,4′:6,7]indolizino[1,2-b]quinolin-10-yl)methyl)piperazin-1-yl)hexyl)(methyl)amino)phenyl)-13-methyl-3-oxo-2,3,6,7,8,11,12,13,14,15,16,17-dodecahydro-1H-cyclopenta[a]phenanthren-17-yl acetate], the half-inhibitory concentration (IC50) in experiment [1] is 0.101 to 1 µM; in experiment [2], below 0.01 µM; in experiment [3], 0.101 to 1 µM; in experiment [4], 101 to 1000 nM.
